Assay results taken from US20110142799A1, “MODULATION OF NEURODEGENERATIVE DISEASE BY MODULATING XBP-1 ACTIVITY” (PRESIDENT AND FELLOWS OF HARVARD COLLEGE, priority 2008, published 2011).

Columns and labels:
[1] = tested on: mutant SOD1 aggregates in NSC34 cells; assay: High molecular weight, detergent insoluble SOD1 aggregates in NSC34 cells by Western blot; format: cell-based, human; details: shXBP-1 and shIRE-1 alpha NSC34 cells expressing SOD1^G85R; 16 h with 10 mM 3-MA or 10 μM wortmannin
Description: Stable motoneuron cell lines with reduced levels of XBP-1, IRE1α, Beclin-1 and EDEM were generated using methods previously described (Hetz et al., 2007) by targeting the respective mRNA with shRNA using the lentiviral expression vector pLKO.1 and puromycin selection. As control empty vector or a shRNA against the luciferase gene were employed. Constructs were generated by The Broad Institute (Boston, USA) based on different criteria for shRNA design (see broad.mit.edu/genome_bio/trc/rnai.html). A total of five different constructs for each gene were screened and the most efficient one was selected for further studies. Targeting sequences identified for the mouse XBP-1, IRE1α, Beclin-1 and EDEM mRNA are 5′-[…]-3′,5′-[…]-3′,5′-[…]-3′,5′-[…]-3′,5′-[…]-3′,5′-[…]-3′, 5′-[…]-3′ and 5′-[…]-3′, respectively. […]
Assays using the transient expression of human SOD1^WT and the mutants SOD1^G93A and SOD1^G85R as EGFP fusion proteins were developed. These constructs were employed to visualize and quantify the formation of intracellular SOD1 inclusions in living cells by fluorescent confocal microscopy. […] SOD1 oligomers were visualized in total cell extracts prepared in RIPA buffer and sonication, and then analyzed by Western blot. […]

[2] = tested on: autophagosomes in NSC34 cells; assay: Autophagosome number (LC3-EGFP dots, electron microscopy) in NSC34 cells; format: cell-based; details: shXBP-1 cells, 16 h with 10 mM 3-MA
Method: Lysosomes or acidic compartments were visualized with two different assays. Living cells were stained with 200 nM lysotraker or 600 nM Acridine orange for 45 min at 37 C and 5% CO2. Cells were washed three times with cold PBS and then fixed for 30 min with 4% formaldehyde on ice, then maintained in PBS containing 0.4% formaldehyde for visualization on a confocal microscope. Autophagosomes were visualized after the expression of LC3-EGFP (Kabeya et al., 2000. EMBO J. 19, 5720-5728) or LC3-dsRED after the transient transfection of low amount of DNA (⅓ amount of recommended concentrations by transfection kit). As control experiments, cells were treated with 10 mM 3-MA autophagy inhibitor. All quantifications were performed at least in a total of 150 cells performed in duplicate for each independent experiment.
Autophagosomes were also visualized by transmission electron microscopy. Cells were fixed with 1.25% formaldehyde, 2.5% glutaraldehyde, 0.03% picric acid in 100 mM sodium cacodylate buffer. After washing with 100 mM sodium cacodylate buffer, tissues were treated for 1 h with 1% osmium tetroxide and 1.5% potassium ferrocyanide, and then 30 min with 0.5% uranyl acetate in 50 mM maleate buffer, pH 5.15. After dehydration in ethanol, cells were treated for 1 h in propylenoxide and then embedded in Epon/Araldite resin. […]

Structure (SMILES): Cn1cnc(N)c2ncnc1-2 [3-MA, 3-methyladenine]
- SOD1 aggregation after PI3-kinase / autophagy inhibitor [1]: recovery of mutant SOD1 aggregation in knockdown cells
- number of cells containing more than four autophagosomes per cell after 3-MA [2]: decreased
